According to US12071404B2, “Aza (indole)-, benzothiophene-, and benzofuran-3-sulfonamides” (UCB Pharma GmbH, priority 2016, dated 2024):

Key:
GPR17 [1] = target: T1, GPR17 (Homo sapiens, UniProt Q13304); test: Calcium mobilization functional assay (GPR17 Ca2+ assay); type: cell-based; set-up: host or cells: Flp-In T-REx CHO; conditions: CHO hGPR17 cells, inhibition of 50 nM MDL29,951, Calcium 5 dye, FLIPR; read-out: Ca2+ assay pIC50 (converted)
In short: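 Flp-In T-REx CHO cells stably expressing human GPR17, doxycycline-induced (1 μg/mL, 16-20 h), loaded 60 min with Calcium 5 dye. Inhibition by varying test-compound concentrations of the 50 nM MDL29,951 agonist response was read by fluorescence over time at room temperature. pIC50 came from 4-parameter logistic fitting.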

GPR17 [2] = target: T1, GPR17; test: cAMP accumulation functional assay (HTRF, Schild analysis); type: cell-based; set-up: host or cells: Flp-In T-REx CHO; conditions: CHO hGPR17 cells, Schild analysis vs MDL29,951, 5 μM forskolin, read-out: cAMP assay pA2 (converted)
In short: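 CHO Flp-In T-REx cells with doxycycline-induced human GPR17 were preincubated 30 min at room temperature in HBSS-HEPES pH 7.4 with antagonist. cAMP was then measured by HTRF after 60 min. MDL29,951 pEC50 shifts gave dose ratios, and Schild analysis gave pA2.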

T1 sequence (Q13304 whole entry): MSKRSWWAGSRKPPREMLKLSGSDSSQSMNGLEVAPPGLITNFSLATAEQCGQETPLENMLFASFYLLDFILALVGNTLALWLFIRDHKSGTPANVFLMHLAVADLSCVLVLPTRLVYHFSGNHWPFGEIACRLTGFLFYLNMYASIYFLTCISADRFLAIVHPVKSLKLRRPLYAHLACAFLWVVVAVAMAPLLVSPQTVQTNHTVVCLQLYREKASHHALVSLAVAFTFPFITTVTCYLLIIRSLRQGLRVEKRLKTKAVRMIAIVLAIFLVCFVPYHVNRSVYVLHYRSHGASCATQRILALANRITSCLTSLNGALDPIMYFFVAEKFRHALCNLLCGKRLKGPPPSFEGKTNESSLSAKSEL

Compound | IC50 (GPR17 [1]) | Kb (GPR17 [2])
O=S(=O)(Nc1cc(F)c(Br)cc1F)c1c[nH]c2cc(Cl)ccc12 [Compound I-213, N-(4-bromo-2,5-difluorophenyl)-6-chloro-1H-indole-3-sulfonamide] | < 3.16 nM | < 3.16 nM
N#Cc1ccc(NS(=O)(=O)c2c[nH]c3c2ccc2ccccc23)c(F)c1 [Compound I-152, N-(4-cyano-2-fluorophenyl)-1H-benzo[g]indole-3-sulfonamide] | < 3.16 nM | < 3.16 nM
O=S(=O)(Nc1cc2nsnc2cc1F)c1c[nH]c2c1ccc1ccccc12 [Compound I-160, N-(6-fluoro-2,1,3-benzothiadiazol-5-yl)-1H-benzo[g]indole-3-sulfonamide] | < 3.16 nM | 3.16 to 31.6 nM
O=C1OCc2ccc(NS(=O)(=O)c3c[nH]c4cc(Cl)ccc34)cc21 [Compound I-8, 6-chloro-N-(3-oxo-1,3-dihydro-2-benzofuran-5-yl)-1H-indole-3-sulfonamide] | > 31.6 nM | > 31.6 nM
O=S(=O)(Nc1cc(F)c(OCC2CC2)cc1F)c1c[nH]c2cc(Cl)ccc12 [Compound I-260, 6-chloro-N-[4-(cyclopropylmethoxy)-2,5-difluorophenyl]-1H-indole-3-sulfonamide] | 3.16 to 31.6 nM | 3.16 to 31.6 nM
N#Cc1ccc2c(S(=O)(=O)Nc3ccc(Cl)cc3F)c[nH]c2c1 [Compound I-76, N-(4-chloro-2-fluorophenyl)-6-cyano-1H-indole-3-sulfonamide] | > 31.6 nM | > 31.6 nM
O=S(=O)(Nc1cccc2c1OCO2)c1c[nH]c2nc(Br)ccc12 [Compound I-97, N-(1,3-benzodioxol-4-yl)-6-bromo-1H-pyrrolo[2,3-b]pyridine-3-sulfonamide] | 3.16 to 31.6 nM | 3.16 to 31.6 nM
COc1cc(Cl)c(F)cc1NS(=O)(=O)c1c[nH]c2c1ccc1ccccc12 [Compound I-175, N-(4-chloro-5-fluoro-2-methoxyphenyl)-1H-benzo[g]indole-3-sulfonamide] | > 31.6 nM | 3.16 to 31.6 nM
O=S(=O)(Nc1cc(F)ccc1F)c1c[nH]c2cc(Cl)ccc12 [Compound I-9, 6-chloro-N-(2,5-difluorophenyl)-1H-indole-3-sulfonamide] | 3.16 to 31.6 nM | 3.16 to 31.6 nM
N#CCc1ccc(NS(=O)(=O)c2c[nH]c3cc(Cl)ccc23)c(F)c1 [Compound I-206, 6-chloro-N-[4-(cyanomethyl)-2-fluorophenyl]-1H-indole-3-sulfonamide] | 3.16 to 31.6 nM | < 3.16 nM
COc1ccc2c(S(=O)(=O)Nc3cc(F)c(Cl)cc3F)c[nH]c2c1 [Compound I-221, N-(4-chloro-2,5-difluorophenyl)-6-methoxy-1H-indole-3-sulfonamide] | 3.16 to 31.6 nM | 3.16 to 31.6 nM
O=S(=O)(Nc1cc(F)c(Cl)cc1F)c1c[nH]c2cc(Br)cc(F)c12 [Compound I-251, 6-bromo-N-(4-chloro-2,5-difluorophenyl)-4-fluoro-1H-indole-3-sulfonamide] | 3.16 to 31.6 nM | 3.16 to 31.6 nM
N#Cc1ccc(NS(=O)(=O)c2c[nH]c3nc(Cl)ccc23)c(F)c1 [Compound I-108, 6-chloro-N-(4-cyano-2-fluorophenyl)-1H-pyrrolo[2,3-b]pyridine-3-sulfonamide] | 3.16 to 31.6 nM | 3.16 to 31.6 nM
CS(=O)(=O)c1ccc2c(S(=O)(=O)Nc3ccc(I)cc3F)c[nH]c2c1 [Compound I-48, N-(2-fluoro-4-iodophenyl)-6-(methylsulfonyl)-1H-indole-3-sulfonamide] | 3.16 to 31.6 nM | 3.16 to 31.6 nM
CS(=O)(=O)c1ccc2c(S(=O)(=O)Nc3cc(F)c(F)cc3F)c[nH]c2c1 [Compound I-239, 6-methylsulfonyl-N-(2,4,5-trifluorophenyl)-1H-indole-3-sulfonamide] | > 31.6 nM | > 31.6 nM
N#Cc1ccc(NS(=O)(=O)c2c[nH]c3ncc(I)cc23)cc1 [Compound I-79, N-(4-cyanophenyl)-5-iodo-1H-pyrrolo[2,3-b]pyridine-3-sulfonamide] | 3.16 to 31.6 nM | > 31.6 nM
O=S(=O)(Nc1cccc2n[se]nc12)c1c[nH]c2cc(Cl)ccc12 [Compound I-142, N-(2,1,3-benzoselenadiazol-4-yl)-6-chloro-1H-indole-3-sulfonamide] | < 3.16 nM | < 3.16 nM
CS(=O)(=O)c1ccc2c(S(=O)(=O)Nc3ccc(C#N)cc3)c[nH]c2c1 [Compound I-14, N-(4-cyanophenyl)-6-(methylsulfonyl)-1H-indole-3-sulfonamide] | 3.16 to 31.6 nM | 3.16 to 31.6 nM
O=S(=O)(Nc1cc(F)c(Cl)cc1F)c1coc2cc(Cl)ccc12 [Compound I-198, 6-chloro-N-(4-chloro-2,5-difluorophenyl)-1-benzofuran-3-sulfonamide] | 3.16 to 31.6 nM | 3.16 to 31.6 nM

Further lines, results first:

IC50 (GPR17 [1]) | Kb (GPR17 [2]) | Compound
< 3.16 nM | < 3.16 nM | CCc1cc(F)c(NS(=O)(=O)c2c[nH]c3cc(Cl)ccc23)nc1F [Compound I-338, 6-chloro-N-(5-ethyl-3,6-difluoropyridin-2-yl)-1H-indole-3-sulfonamide]
3.16 to 31.6 nM | 3.16 to 31.6 nM | COCCOc1cc(F)c(NS(=O)(=O)c2c[nH]c3cc(Cl)ccc23)nc1F [Compound I-365, 6-chloro-N-[3,6-difluoro-5-(2-methoxyethoxy)pyridin-2-yl]-1H-indole-3-sulfonamide]
3.16 to 31.6 nM | 3.16 to 31.6 nM | COc1nc(NS(=O)(=O)c2c[nH]c3c(Cl)c(F)ccc23)c(F)cc1Cl [Compound I-357, 7-chloro-N-(5-chloro-3-fluoro-6-methoxypyridin-2-yl)-6-fluoro-1H-indole-3-sulfonamide]
< 3.16 nM | < 3.16 nM | O=S(=O)(Nc1cc(F)c(C(F)(F)F)cc1F)c1c[nH]c2nc(Cl)ccc12 [Compound I-303, 6-chloro-N-[2,5-difluoro-4-(trifluoromethyl)phenyl]-1H-pyrrolo[2,3-b]pyridine-3-sulfonamide]
3.16 to 31.6 nM | 3.16 to 31.6 nM | C#Cc1ccc(NS(=O)(=O)c2c[nH]c3nc(OC)ccc23)c(F)c1 [Compound I-283, N-(4-ethynyl-2-fluorophenyl)-6-methoxy-1H-pyrrolo[2,3-b]pyridine-3-sulfonamide]
< 3.16 nM | < 3.16 nM | N#Cc1ccc(NS(=O)(=O)c2c[nH]c3c(Br)c(Cl)ccc23)c(F)c1 [Compound I-341, 7-bromo-6-chloro-N-(4-cyano-2-fluorophenyl)-1H-indole-3-sulfonamide]
< 3.16 nM | 3.16 to 31.6 nM | COc1ccc2c(S(=O)(=O)Nc3cc(F)c(C#N)cc3OC)c[nH]c2c1 [Compound I-288, N-(4-cyano-5-fluoro-2-methoxyphenyl)-6-methoxy-1H-indole-3-sulfonamide]
< 3.16 nM | < 3.16 nM | COc1cc(Br)c(F)nc1NS(=O)(=O)c1c[nH]c2cc(Cl)ccc12 [Compound I-349, N-(5-bromo-6-fluoro-3-methoxypyridin-2-yl)-6-chloro-1H-indole-3-sulfonamide]
< 3.16 nM | < 3.16 nM | COC/C=C/c1cc(F)c(NS(=O)(=O)c2c[nH]c3cc(Br)ccc23)nc1F [Compound I-325, 6-bromo-N-{3,6-difluoro-5-[(1E)-3-methoxyprop-1-en-1-yl]pyridin-2-yl}-1H-indole-3-sulfonamide]
< 3.16 nM | < 3.16 nM | COc1nc(NS(=O)(=O)c2c[nH]c3cc(N=[N+]=[N-])ccc23)c(F)cc1CC#N [Compound I-353, 6-azido-N-[5-(cyanomethyl)-3-fluoro-6-methoxypyridin-2-yl]-1H-indole-3-sulfonamide]
